Results taken from the NIST ThermoML archive (doi:10.1016/j.fluid.2015.10.034).
Numbers after ± are expanded uncertainties.

Conditions: Liquid, Frequency=8 MHz, Pulse-echo method

[2H]O[2H] [water-d2]
Conditions | speed of sound [m/s]
278.21 K, 150.19 kPa | 1326 ± 0.68
278.21 K, 152.01 kPa | 1326 ± 0.68
278.21 K, 5021.9 kPa | 1332.5 ± 0.68
278.21 K, 5025.1 kPa | 1332.5 ± 0.68
278.21 K, 9983.4 kPa | 1339.3 ± 0.69
278.21 K, 9986 kPa | 1339.3 ± 0.69
278.21 K, 15113 kPa | 1346.4 ± 0.69
278.21 K, 15117 kPa | 1346.5 ± 0.69
278.21 K, 20109 kPa | 1353.6 ± 0.69
278.21 K, 20152 kPa | 1353.7 ± 0.69
278.22 K, 2465.2 kPa | 1329.1 ± 0.68
278.22 K, 2465.6 kPa | 1329.1 ± 0.68
283.21 K, 154.9 kPa | 1347.8 ± 0.69
283.21 K, 156.96 kPa | 1347.8 ± 0.69
283.21 K, 2494.8 kPa | 1351.1 ± 0.69
283.21 K, 2498 kPa | 1351.1 ± 0.69
283.21 K, 5043.1 kPa | 1354.6 ± 0.69
283.21 K, 5043.6 kPa | 1354.6 ± 0.69
283.21 K, 9942.4 kPa | 1361.6 ± 0.69
283.21 K, 9943.6 kPa | 1361.6 ± 0.69
283.21 K, 15142 kPa | 1369 ± 0.7
283.21 K, 15143 kPa | 1369.1 ± 0.7
283.21 K, 20195 kPa | 1376.4 ± 0.7
283.21 K, 20198 kPa | 1376.4 ± 0.7
293.2 K, 179.82 kPa | 1384.1 ± 0.7
293.2 K, 181.19 kPa | 1384.1 ± 0.7
293.2 K, 2473.1 kPa | 1387.5 ± 0.7
293.2 K, 2473.2 kPa | 1387.5 ± 0.7
293.2 K, 5119.8 kPa | 1391.4 ± 0.71
293.2 K, 5125.6 kPa | 1391.4 ± 0.71
293.2 K, 10078 kPa | 1398.8 ± 0.71
293.2 K, 10086 kPa | 1398.8 ± 0.71
293.2 K, 15047 kPa | 1406.2 ± 0.71
293.2 K, 15052 kPa | 1406.2 ± 0.71
293.2 K, 20333 kPa | 1414.2 ± 0.97
293.2 K, 20361 kPa | 1414.2 ± 0.97
313.2 K, 109.61 kPa | 1432.5 ± 0.72
313.2 K, 109.88 kPa | 1432.5 ± 0.72
313.2 K, 2458.2 kPa | 1436.3 ± 0.72
313.2 K, 2468.5 kPa | 1436.3 ± 0.72
313.2 K, 5110.5 kPa | 1440.5 ± 0.72
313.2 K, 5110.8 kPa | 1440.5 ± 0.72
313.2 K, 15060 kPa | 1456.3 ± 0.73
313.2 K, 20267 kPa | 1464.5 ± 0.73
313.2 K, 20276 kPa | 1464.6 ± 0.73
333.2 K, 195.58 kPa | 1456.2 ± 0.73
333.2 K, 211.29 kPa | 1456.2 ± 0.73
333.2 K, 2499.2 kPa | 1460.1 ± 0.73
333.2 K, 2499.6 kPa | 1460.1 ± 0.73
333.2 K, 5054.7 kPa | 1464.5 ± 0.73
333.2 K, 5055 kPa | 1464.5 ± 0.73
333.2 K, 10044 kPa | 1473 ± 2.3
333.2 K, 10071 kPa | 1473.1 ± 2.3
333.2 K, 20122 kPa | 1490 ± 0.74
333.2 K, 20126 kPa | 1490 ± 0.74
353.2 K, 142.15 kPa | 1460.6 ± 0.73
353.2 K, 144.59 kPa | 1460.6 ± 0.73
353.2 K, 2522.3 kPa | 1465.1 ± 0.73
353.2 K, 2528 kPa | 1465 ± 0.73
353.2 K, 5032.1 kPa | 1469.7 ± 0.74
353.2 K, 5034.1 kPa | 1469.7 ± 0.74
353.2 K, 10091 kPa | 1479 ± 0.74
353.2 K, 10094 kPa | 1479.1 ± 0.74
353.2 K, 15060 kPa | 1488 ± 0.74
353.2 K, 15062 kPa | 1488.1 ± 0.74
